Where a name gives a salt, the structure may show the parent alone. Bounds are passed on as bounds.

This assay addresses human GlyT1c transporter (Homo sapiens (Human), UniProt P48067). The assay is described as follows: Radioligand binding assay using recombinant CHO cell membranes expressing human GlyT1. The following applies: human GlyT1c-expressing CHO cell membranes; read-out: radioligand binding Kiapp. The source says: 2. Radioligand binding assays using recombinant CHO cell membranes expressing human GlyT1: […]

human GlyT1c transporter, sequence (P48067 whole entry): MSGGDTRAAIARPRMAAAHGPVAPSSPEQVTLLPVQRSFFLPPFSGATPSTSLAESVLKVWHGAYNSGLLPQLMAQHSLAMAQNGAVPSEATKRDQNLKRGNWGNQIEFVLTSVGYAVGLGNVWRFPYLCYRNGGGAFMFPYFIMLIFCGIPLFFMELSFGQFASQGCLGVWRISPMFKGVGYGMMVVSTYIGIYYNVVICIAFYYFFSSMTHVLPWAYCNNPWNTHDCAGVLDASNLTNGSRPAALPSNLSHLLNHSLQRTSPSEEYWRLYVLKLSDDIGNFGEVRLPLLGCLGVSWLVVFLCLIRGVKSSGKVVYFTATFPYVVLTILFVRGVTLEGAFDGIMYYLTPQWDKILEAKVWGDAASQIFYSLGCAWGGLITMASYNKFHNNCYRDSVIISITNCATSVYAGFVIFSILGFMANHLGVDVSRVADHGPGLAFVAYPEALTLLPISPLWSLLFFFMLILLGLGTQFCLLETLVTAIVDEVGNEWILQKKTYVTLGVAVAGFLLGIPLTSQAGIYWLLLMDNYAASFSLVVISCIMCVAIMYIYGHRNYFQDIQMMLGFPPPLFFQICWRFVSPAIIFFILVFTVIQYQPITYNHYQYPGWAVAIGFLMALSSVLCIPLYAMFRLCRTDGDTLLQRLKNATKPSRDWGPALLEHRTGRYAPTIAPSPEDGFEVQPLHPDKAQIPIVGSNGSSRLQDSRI

Take `O=S(=O)(CC1CC1)NCCOc1ccc2c(c1)C(Cc1ccc(Cl)c(Cl)c1)C(N1CCC(F)C1)CC2` (stereo not drawn) [Example 134, 1-Cyclopropyl-N-[2-({8-(3,4-dichlorobenzyl)-7-[3-fluoropyrrolidin-1-yl]-5,6,7,8-tetrahydronaphthalen-2-yl}oxy)ethyl]methanesulfonamide]: the Ki was ≤ 1000 nM.

Regarding `Cn1cc(S(=O)(=O)NCc2ccc3c(c2)C(Cc2ccccc2)C(N2CCOCC2)CC3)cn1` (stereo not drawn) [Example 258, N-{[8-Benzyl-7-(morpholin-4-yl)-5,6,7,8-tetrahydronaphthalen-2-yl]methyl}-1-methyl-1H-pyrazole-4-sulfonamide], the Ki is ≤ 100 nM. The figure for `CCCS(=O)(=O)N1CC(COc2ccc3c(c2)C(Cc2ccccc2)C(N)CC3)C1` (stereo not drawn) [Example 292, 1-Benzyl-7-[1-(propane-1-sulfonyl)-azetidin-3-ylmethoxy]-1,2,3,4-tetrahydro-naphthalen-2-ylamine hydrochloride] is ≤ 1000 nM; for `CCCS(=O)(=O)NCC#Cc1ccc2c(c1)C(Cc1ccccc1)C(NC(C)=O)CC2` (stereo not drawn) [Example 276, N-[1-Benzyl-7-{3-[(propylsulfonyl)amino]prop-1-yn-1-yl}-1,2,3,4-tetrahydronaphthalen-2-yl]acetamide] it is ≤ 10000 nM; for `CN(CCOc1ccc2c(c1)C(Cc1ccccc1)C(N)CC2)S(=O)(=O)c1cnn(C)c1` (stereo not drawn) [Example 109, 1-Methyl-1H-pyrazole-4-sulfonic acid [2-(7-amino-8-benzyl-5,6,7,8-tetrahydro-naphthalen-2-yloxy)-ethyl]-methyl-amide] it is ≤ 100 nM. In the case of `CN(CCOc1ccc2c(c1)C(Cc1ccc(Cl)c(Cl)c1)C(N)CC2)S(=O)(=O)CC1CC1` (stereo not drawn) [Example 108, N-{2-[7-Amino-8-(3,4-dichloro-benzyl)-5,6,7,8-tetrahydro-naphthalen-2-yloxy]-ethyl}-C-cyclopropyl-N-methyl-methanesulfonamide hydrochloride], the Ki is ≤ 10 nM. As for `Cn1cnc(S(=O)(=O)NCCOc2ccc3c(c2)C(Cc2cc(F)cc(Cl)c2)C(N)CC3)c1` (stereo not drawn) [Example 151, N-(2-{[7-Amino-8-(3-chloro-5-fluorobenzyl)-5,6,7,8-tetrahydronaphthalen-2-yl]oxy}ethyl)-1-methyl-1H-imidazole-4-sulfonamide hydrochloride], the Ki was ≤ 10 nM. Take `CCNC1CCc2ccc(OCCNS(=O)(=O)CC3CC3)cc2C1Cc1cccc(Cl)c1` (stereo not drawn) [Example 307, N-{2-[8-(3-Chloro-benzyl)-7-ethylamino-5,6,7,8-tetrahydro-naphthalen-2-yloxy]-ethyl}-C-cyclopropyl-methanesulfonamide hydrochloride]: the Ki was ≤ 10 nM.

As to `CCCS(=O)(=O)N(CCOc1ccc2c(c1)C(Cc1cccc(Cl)c1)C(N)CC2)C1CC1` (stereo not drawn) [Example 281, Propane-1-sulfonic acid {2-[7-amino-8-(3-chloro-benzyl)-5,6,7,8-tetrahydro-naphthalen-2-yloxy]-ethyl}-cyclopropyl-amide hydrochloride], the Ki is ≤ 100 nM. For the compound `CCCCCS(=O)(=O)NCCOc1ccc2c(c1)C(Cc1ccc(Cl)c(Cl)c1)C(N)CC2` (stereo not drawn) [Example 114, N-(2-(7-Amino-8-(3,4-dichlorobenzyl)-5,6,7,8-tetrahydronaphthalen-2-yloxy)ethyl)pentane-1-sulfonamide hydrochloride], the Ki was ≤ 1000 nM. `CCCS(=O)(=O)NCCCc1ccc2c(c1)C(Cc1ccc(F)cc1)C(N)CC2` (stereo not drawn) [Example 213, N-{3-[7-Amino-8-(4-fluorobenzyl)-5,6,7,8-tetrahydronaphthalen-2-yl]propyl}propane-1-sulfonamide hydrochloride]: the Ki was ≤ 100 nM. Turning to `CN(CCOc1ccc2c(c1)C(Cc1ccccc1)C(N)CC2)S(=O)(=O)c1cn(C)cn1` (stereo not drawn) [Example 98, 1-Methyl-1H-imidazole-4-sulfonic acid [2-(7-amino-8-benzyl-5,6,7,8-tetrahydronaphthalen-2-yloxy)-ethyl]-methyl-amide hydrochloride], the Ki was ≤ 1000 nM.

For the compound `NC1CCc2ccc(CCCNS(=O)(=O)CC3CC3)cc2C1Cc1ccc(F)c(F)c1` (stereo not drawn) [Example 204, N-{3-[7-Amino-8-(3,4-difluoro-benzyl)-5,6,7,8-tetrahydro-naphthalen-2-yl]-propyl}-C-cyclopropyl-methanesulfonamide hydrochloride], the Ki is ≤ 100 nM. The figure for `NC1CCc2ccc(CNS(=O)(=O)C3CCC3)cc2C1Cc1ccc(F)c(F)c1` (stereo not drawn) [Example 186, N-{[7-Amino-8-(3,4-difluorobenzyl)-5,6,7,8-tetrahydronaphthalen-2-yl]methyl}cyclobutanesulfonamide hydrochloride] is ≤ 1000 nM; for `CCCS(=O)(=O)CCc1ccc2c(c1)C(Cc1cccc(Cl)c1)C(N)CC2` (stereo not drawn) [Example 326, 1-(3-Chloro-benzyl)-7-[2-(propane-1-sulfonyl)-ethyl]-1,2,3,4-tetrahydro-naphthalen-2-ylamine hydrochloride] it is ≤ 1000 nM. `Cn1cnc(S(=O)(=O)NCCOc2ccc3c(c2)C(Cc2cccc(Cl)c2)C(N2CCC2)CC3)c1` (stereo not drawn) [Example 321, 1-Methyl-1H-imidazole-4-sulfonic acid {2-[7-azetidin-1-yl-8-(3-chloro-benzyl)-5,6,7,8-tetrahydro-naphthalen-2-yloxy]-ethyl}-amide hydrochloride]: the Ki was ≤ 10 nM. The figure for `CC(=O)NC1CCc2ccc(CCCNS(=O)(=O)CC3CC3)cc2C1Cc1cccc(F)c1` (stereo not drawn) [Example 218, N-[7-(3-{[(Cyclopropylmethyl)sulfonyl]amino}propyl)-1-(3-fluorobenzyl)-1,2,3,4-tetrahydronaphthalen-2-yl]acetamide] is ≤ 10000 nM. The figure for `O=S(=O)(NCCOc1ccc2c(c1)C(Cc1ccccc1)C(N1CCC1)CC2)C1CCC1` (stereo not drawn) [Example 147, N-(2-{[7-(Azetidin-1-yl)-8-benzyl-5,6,7,8-tetrahydronaphthalen-2-yl]oxy}ethyl)cyclobutanesulfonamide] is ≤ 100 nM; for `Cn1cnc(S(=O)(=O)NCCOc2ccc3c(c2)C(Cc2cc(F)cc(Cl)c2)C(N2CCC2)CC3)c1` (stereo not drawn) [Example 160, N-(2-{[7-(Azetidin-1-yl)-8-(3-chloro-5-fluorobenzyl)-5,6,7,8-tetrahydronaphthalen-2-yl]oxy}ethyl)-1-methyl-1H-imidazole-4-sulfonamide(2E)-but-2-enedioate] it is ≤ 10 nM.

On to `Cn1ccc(S(=O)(=O)NCCOc2ccc3c(c2)C(Cc2cccc(F)c2)C(N2CCCC2)CC3)c1` (stereo not drawn) [Example 149, N-(2-{[8-(3-Fluorobenzyl)-7-(pyrrolidin-1-yl)-5,6,7,8-tetrahydronaphthalen-2-yl]oxy}ethyl)-1-methyl-1H-pyrrole-3-sulfonamide hydrochloride], for which the Ki is ≤ 100 nM. Take `CNC1CCc2ccc(CNS(=O)(=O)C3CCC3)cc2C1Cc1ccccc1` (single isomer, unassigned; enantiomer 1) [Example 193, Enantiomer 1 of N-{[8-benzyl-7-(methylamino)-5,6,7,8-tetrahydronaphthalen-2-yl]methyl}cyclobutanesulfonamide hydrochloride]: the Ki was ≤ 10 nM. The figure for `NC1CCc2ccc(CCCNS(=O)(=O)CC3CC3)cc2C1Cc1ccc(F)cc1` (stereo not drawn) [Example 208, N-{3-[7-Amino-8-(4-fluorobenzyl)-5,6,7,8-tetrahydronaphthalen-2-yl]propyl}-1-cyclopropylmethanesulfonamide hydrochloride] is ≤ 100 nM; for `NC1CCc2ccc(CCCNS(=O)(=O)CC3CC3)cc2C1Cc1cccc(F)c1` (stereo not drawn) [Example 210, N-{3-[7-Amino-8-(3-fluorobenzyl)-5,6,7,8-tetrahydronaphthalen-2-yl]propyl}-1-cyclopropylmethanesulfonamide hydrochloride] it is ≤ 100 nM; for `Cn1ccc(S(=O)(=O)NCCOc2ccc3c(c2)C(Cc2cccc(F)c2)C(N2CCCC2)CC3)c1` (stereo not drawn) [Example 267, N-(2-{[8-(3-Fluorobenzyl)-7-(pyrrolidin-1-yl)-5,6,7,8-tetrahydronaphthalen-2-yl]oxy}ethyl)-1-methyl-1H-pyrrole-3-sulfonamide] it is ≤ 100 nM.

Take `NC1CCc2ccc(CCCNS(=O)(=O)CC3CC3)cc2C1Cc1ccc(Cl)cc1` (stereo not drawn) [Example 202, N-{3-[7-Amino-8-(4-chlorobenzyl)-5,6,7,8-tetrahydronaphthalen-2-yl]propyl}-1-cyclopropylmethanesulfonamide hydrochloride]: the Ki was ≤ 100 nM. The figure for `Cn1cnc(S(=O)(=O)NCCOc2ccc3c(c2)C(Cc2cccc(C(F)(F)F)c2)C(N)CC3)c1` (stereo not drawn) [Example 165, 1-Methyl-1H-imidazole-4-sulfonic acid {2-[7-amino-8-(3-trifluoromethyl-benzyl)-5,6,7,8-tetrahydro-naphthalen-2-yloxy]-ethyl}-amide hydrochloride] is ≤ 10 nM. For the compound `Cn1cnc(S(=O)(=O)NCc2ccc3c(c2)C(Cc2ccc(F)cc2)C(N)CC3)c1` (stereo not drawn) [Example 176, N-{[7-Amino-8-(4-fluorobenzyl)-5,6,7,8-tetrahydronaphthalen-2-yl]methyl}-1-methyl-1H-imidazole-4-sulfonamide hydrochloride], the Ki is ≤ 100 nM. With `Cn1cnc(S(=O)(=O)NCc2ccc3c(c2)C(Cc2ccccc2)C(N2CCOCC2)CC3)c1` (stereo not drawn) [Example 257, N-{[8-Benzyl-7-(morpholin-4-yl)-5,6,7,8-tetrahydronaphthalen-2-yl]methyl}-1-methyl-1H-imidazole-4-sulfonamide], the Ki is ≤ 100 nM.

Consider `CNC1CCc2ccc(CCNS(=O)(=O)c3cn(C)cn3)cc2C1Cc1cccc(Cl)c1` (stereo not drawn) [Example 313, 1-Methyl-1H-imidazole-4-sulfonic acid {2-[8-(3-chloro-benzyl)-7-methylamino-5,6,7,8-tetrahydro-naphthalen-2-yl]-ethyl}-amide], for which the Ki is ≤ 100 nM. In the case of `CCOC(=O)NC1CCc2ccc(OCC3CN(S(=O)(=O)CC4CC4)C3)cc2C1Cc1cccc(Cl)c1` (stereo not drawn) [Example 289, [1-(3-Chloro-benzyl)-7-(1-cyclopropylmethanesulfonyl-azetidin-3-ylmethoxy)-1,2,3,4-tetrahydro-naphthalen-2-yl]-carbamic acid ethyl ester], the Ki was > 10000 nM.

The values above are taken from patent publication US9067871B2, “Aminotetraline derivatives, pharmaceutical compositions containing them, and their use in therapy” (ABBVIE DEUTSCHLAND GMBH & CO KG, priority 2009, dated 2015).
